According to ChEMBL document CHEMBL5465560, “Selectivity Literature for EUbOPEN Chemogenomic Library” (2024):
One block for each molecule: values may come before it.

Experiments:
[1] = biological target: T1, Tyrosine-protein kinase Tec (Homo sapiens) (UniProt P42680); test: Selectivity interaction (Kinase panel (Invitrogen)) EUB0000639a TEC; conditions: at 200 nM
T1 sequence (whole entry): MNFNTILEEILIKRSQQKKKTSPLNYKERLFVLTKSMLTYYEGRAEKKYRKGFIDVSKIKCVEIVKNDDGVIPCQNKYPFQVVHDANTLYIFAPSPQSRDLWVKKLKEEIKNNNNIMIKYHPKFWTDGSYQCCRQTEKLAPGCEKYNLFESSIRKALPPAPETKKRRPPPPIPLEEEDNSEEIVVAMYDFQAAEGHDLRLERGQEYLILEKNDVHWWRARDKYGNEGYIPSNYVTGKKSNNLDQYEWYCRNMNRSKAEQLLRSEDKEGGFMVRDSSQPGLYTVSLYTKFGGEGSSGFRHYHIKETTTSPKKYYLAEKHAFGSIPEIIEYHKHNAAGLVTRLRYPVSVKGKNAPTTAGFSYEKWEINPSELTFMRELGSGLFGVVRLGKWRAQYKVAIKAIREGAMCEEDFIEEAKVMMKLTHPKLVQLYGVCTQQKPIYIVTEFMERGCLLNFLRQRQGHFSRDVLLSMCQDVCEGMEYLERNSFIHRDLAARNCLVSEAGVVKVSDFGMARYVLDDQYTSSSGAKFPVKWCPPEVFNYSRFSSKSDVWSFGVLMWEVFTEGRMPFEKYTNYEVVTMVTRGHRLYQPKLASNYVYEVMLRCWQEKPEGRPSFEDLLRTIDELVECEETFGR

[2] = biological target: T2, Mitogen-activated protein kinase kinase kinase 5 (Homo sapiens) (UniProt Q99683); test: Selectivity interaction (Kinase panel (KiNativ target engagement assay in Jurkat cells)) EUB0001635a MAP3K5; type: cell-based; conditions: Selectivity number of off-targets 0.0, Selectivity number of targets 233.0, Source Knowledge https://www.sciencedirect.com/science/article/pii/S2451945619300674?via%3Dihub, at 1 µM
T2 sequence (whole entry): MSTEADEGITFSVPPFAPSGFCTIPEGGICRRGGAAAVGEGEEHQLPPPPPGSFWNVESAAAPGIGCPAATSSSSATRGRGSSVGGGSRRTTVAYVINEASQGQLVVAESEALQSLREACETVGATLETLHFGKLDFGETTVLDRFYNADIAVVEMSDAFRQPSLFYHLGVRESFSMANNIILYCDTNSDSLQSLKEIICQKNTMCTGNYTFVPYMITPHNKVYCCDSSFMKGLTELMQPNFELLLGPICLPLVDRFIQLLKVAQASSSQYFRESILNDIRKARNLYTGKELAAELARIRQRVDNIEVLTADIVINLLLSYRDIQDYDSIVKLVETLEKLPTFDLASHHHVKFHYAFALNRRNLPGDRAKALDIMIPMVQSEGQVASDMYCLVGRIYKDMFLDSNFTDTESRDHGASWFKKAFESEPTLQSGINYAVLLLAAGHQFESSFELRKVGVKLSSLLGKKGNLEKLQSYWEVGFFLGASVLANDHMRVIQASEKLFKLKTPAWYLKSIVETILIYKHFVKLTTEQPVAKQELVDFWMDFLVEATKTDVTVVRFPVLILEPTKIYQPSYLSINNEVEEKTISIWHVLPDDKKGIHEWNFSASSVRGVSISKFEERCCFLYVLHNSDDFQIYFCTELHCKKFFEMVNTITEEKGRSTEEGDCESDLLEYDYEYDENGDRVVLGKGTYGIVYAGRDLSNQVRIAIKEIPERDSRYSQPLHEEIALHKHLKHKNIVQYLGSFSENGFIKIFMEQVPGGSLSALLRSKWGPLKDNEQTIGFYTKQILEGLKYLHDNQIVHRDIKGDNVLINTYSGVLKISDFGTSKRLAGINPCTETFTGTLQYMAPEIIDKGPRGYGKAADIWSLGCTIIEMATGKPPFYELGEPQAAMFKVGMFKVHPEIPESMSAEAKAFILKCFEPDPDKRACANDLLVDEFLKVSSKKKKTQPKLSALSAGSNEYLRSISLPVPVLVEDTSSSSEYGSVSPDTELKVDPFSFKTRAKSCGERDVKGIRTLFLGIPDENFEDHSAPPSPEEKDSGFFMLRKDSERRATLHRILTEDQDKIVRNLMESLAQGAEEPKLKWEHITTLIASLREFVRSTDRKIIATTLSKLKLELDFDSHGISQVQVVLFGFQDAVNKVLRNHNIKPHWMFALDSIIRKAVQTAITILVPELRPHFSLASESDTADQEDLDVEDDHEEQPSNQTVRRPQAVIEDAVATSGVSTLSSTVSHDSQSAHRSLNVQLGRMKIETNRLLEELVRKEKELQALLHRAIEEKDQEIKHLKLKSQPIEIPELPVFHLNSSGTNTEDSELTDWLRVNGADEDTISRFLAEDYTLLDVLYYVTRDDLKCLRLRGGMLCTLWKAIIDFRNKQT

[3] = biological target: T3, Ephrin type-B receptor 6 (Homo sapiens) (UniProt O15197); conditions: at 10 µM
T3 sequence (whole entry): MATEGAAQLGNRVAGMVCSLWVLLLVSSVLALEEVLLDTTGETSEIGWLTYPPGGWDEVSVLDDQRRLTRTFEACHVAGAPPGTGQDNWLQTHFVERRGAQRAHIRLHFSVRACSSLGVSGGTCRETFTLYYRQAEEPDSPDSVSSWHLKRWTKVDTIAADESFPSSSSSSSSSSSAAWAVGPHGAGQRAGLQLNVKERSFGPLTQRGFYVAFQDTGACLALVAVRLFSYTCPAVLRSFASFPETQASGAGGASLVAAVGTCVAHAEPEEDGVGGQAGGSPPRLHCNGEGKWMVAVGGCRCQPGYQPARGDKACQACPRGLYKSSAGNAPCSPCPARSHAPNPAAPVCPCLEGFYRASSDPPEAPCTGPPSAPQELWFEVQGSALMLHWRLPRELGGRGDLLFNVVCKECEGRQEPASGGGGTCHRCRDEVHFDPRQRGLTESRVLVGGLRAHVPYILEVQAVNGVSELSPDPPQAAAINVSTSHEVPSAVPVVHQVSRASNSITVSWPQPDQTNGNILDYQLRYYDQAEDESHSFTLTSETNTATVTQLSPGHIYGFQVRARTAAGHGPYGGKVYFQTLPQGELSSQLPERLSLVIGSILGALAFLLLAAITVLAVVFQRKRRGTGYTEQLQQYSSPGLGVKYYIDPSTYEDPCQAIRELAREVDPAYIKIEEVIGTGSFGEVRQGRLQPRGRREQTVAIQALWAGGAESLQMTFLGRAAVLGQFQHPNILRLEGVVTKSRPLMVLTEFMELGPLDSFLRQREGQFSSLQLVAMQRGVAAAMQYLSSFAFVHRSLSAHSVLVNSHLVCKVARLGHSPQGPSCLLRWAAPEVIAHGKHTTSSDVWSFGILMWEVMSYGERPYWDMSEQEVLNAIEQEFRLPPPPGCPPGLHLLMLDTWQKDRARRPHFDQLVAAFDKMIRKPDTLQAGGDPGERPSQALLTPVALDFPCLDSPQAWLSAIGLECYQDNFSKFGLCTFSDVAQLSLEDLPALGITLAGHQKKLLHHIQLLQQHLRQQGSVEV

% of inhibition [1]: -4.01%
Compound: CC[C@@H]1[C@H](F)C(=O)N[C@@H]1COc1nccc2cc(C(N)=O)c(OC)cc12 [ZIMLOVISERTIB]

Compound: C=CC(=O)Nc1ccc(C(=O)Nc2[nH]nc3c2CN(C(=O)N[C@H](CN(C)C)c2ccccc2)C3(C)C)cc1
% of engagement [2]: 3.6%

Compound: Cc1cc([C@@H](C)Nc2ccccc2C(=O)O)c2nc(N3CCOCC3)cc(=O)n2c1 [AZD-6482]
% of control [3]: 41%
